Data published in patent US8343983B2, “Substituted pyrazolo-pyrimidine compounds” (ArQule, Inc., priority 2009, dated 2013).
Where two headings read alike, the source gives them in different places.

Tested on: cancer cells
Assay: MTS assay: inhibition of cell growth (formazan absorbance at 492 nm after 72 hours with test compound)
Format: cell-based
Details: inhibition class
Method: Cells were maintained at 37° C., 5% CO2 in DMEM media supplemented with 1% fetal bovine serum, penicillin/streptomycin and fungizone (Invitrogen). Cells were seeded into 96-well tissue culture plates at 3000 per well and cultured at 37° C. for 18 hours. Test compounds were dissolved and diluted to 300× in DMSO then diluted 1:40 in DMEM. Cells were incubated with test compounds for 72 hours followed by incubation with tetrazolium compound (3-(4,5-dimethylthiazol-2-yl)-5-(3-carboxymethoxyphenyl)-2-(4-sulfophenyl)-2H-tetrazolium, inner salt; MTS) and the electron coupling reagent, phenazine methosulfate (PMS) for 4 hours. […] The ability of compounds to inhibit cell growth in this assay is correlated with the reduction of dehydrogenase enzyme activity found in metabolically active cells. The measurement of the absorbance of the formazan was assessed using an ENVISION™ (Perkin Elmer) microplate reader at 492 nm. The calculated IC50 value is the concentration of the test compound that causes a 50% decrease in the absorbance. […] A=>79% inhibition, B=>50 to 79% inhibition, C=<50% inhibition.

[1] = Homo sapiens, DLD-1 cells, read-out: DLD-1, MTS 72 hours at 10 uM
[2] = Homo sapiens, KATO III cells, read-out: KATO III, MTS 72 hours at 10 uM
[3] = Homo sapiens, MDA-MB-231 cells, read-out: MDA-MB-231, MTS 72 hours at 10 uM
[4] = Homo sapiens, NCI-H1299 cells, read-out: NCI-H1299, MTS 72 hours at 10 uM
[5] = Homo sapiens, PC-3 cells, read-out: PC-3, MTS 72 hours at 10 uM
[6] = PACA-2 cells, read-out: PACA-2, MTS 72 hours at 10 uM

Row | SMILES | inhibition at 10 µM [1] [%] | inhibition at 10 µM [2] [%] | inhibition at 10 µM [3] [%] | inhibition at 10 µM [4] [%] | inhibition at 10 µM [5] [%] | inhibition at 10 µM [6] [%]
1 | Cc1ccccc1CCNc1nc2c3c(n[nH]c3n1)CCN2Cc1ccccc1 [Compound 87, 6-benzyl-N-[2-(2-methylphenyl)ethyl]-2,6,7,8-tetrahydro-1,2,3,5,6-pentaazaacenaphthylen-4-amine] | < 50 | < 50 | < 50 | 50 to 79 | < 50 | < 50
2 | O=C(NCc1ccccc1)C1CN(Cc2ccccc2)c2nc(NCc3ccccc3Cl)nc3[nH]nc1c23 (stereo not drawn) [Compound 229, N,6-dibenzyl-4-[(2-chlorobenzyl)amino]-2,6,7,8-tetrahydro-1,2,3,5,6-pentaazaacenaphthylene-8-carboxamide] | < 50 | < 50 | < 50 | < 50 | 50 to 79 | < 50
3 | c1ccc(CN2CCc3n[nH]c4nc(NCc5cccc6ccccc56)nc2c34)cc1 [Compound 7, 6-benzyl-N-(1-naphthylmethyl)-2,6,7,8-tetrahydro-1,2,3,5,6-pentaazaacenaphthylen-4-amine] | < 50 | > 79 | > 79 | < 50 | > 79 | < 50
4 | CCCCNc1nc2c3c(n[nH]c3n1)CCN2Cc1ccccc1 [Compound 84, 6-benzyl-N-butyl-2,6,7,8-tetrahydro-1,2,3,5,6-pentaazaacenaphthylen-4-amine] | > 79 | > 79 | > 79 | > 79 | > 79 | > 79
5 | c1ccc(CN2CCc3n[nH]c4nc(NCc5ccco5)nc2c34)cc1 [Compound 54, 6-benzyl-N-(2-furylmethyl)-2,6,7,8-tetrahydro-1,2,3,5,6-pentaazaacenaphthylen-4-amine] | < 50 | < 50 | < 50 | < 50 | < 50 | < 50
6 | Clc1ccccc1CCNc1nc2c3c(n[nH]c3n1)CCN2Cc1ccccc1 [Compound 35, 6-benzyl-N-[2-(2-chlorophenyl)ethyl]-2,6,7,8-tetrahydro-1,2,3,5,6-pentaazaacenaphthylen-4-amine] | < 50 | < 50 | 50 to 79 | < 50 | < 50 | < 50
7 | CC(O)CNc1nc2c3c(n[nH]c3n1)CCN2Cc1ccccc1 (stereo not drawn) [Compound 69, 1-[(6-benzyl-2,6,7,8-tetrahydro-1,2,3,5,6-pentaazaacenaphthylen-4-yl)amino]propan-2-ol] | < 50 | < 50 | < 50 | < 50 | < 50 | < 50
8 | CSc1nc2c3c(nn(Cc4ccccc4)c3n1)CCN2Cc1ccccc1 [Compound 133, 2,6-dibenzyl-4-(methylsulfanyl)-2,6,7,8-tetrahydro-1,2,3,5,6-pentaazaacenaphthylene] | > 79 | > 79 | > 79 | > 79 | > 79 | > 79
9 | c1ccc(CN2CCc3n[nH]c4nc(NC5Cc6ccccc6C5)nc2c34)cc1 [Compound 17, 6-benzyl-N-(2,3-dihydro-1H-inden-2-yl)-2,6,7,8-tetrahydro-1,2,3,5,6-pentaazaacenaphthylen-4-amine] | 50 to 79 | 50 to 79 | < 50 | 50 to 79 | < 50 | 50 to 79
